Data as given in patent publication US20040029774A1, “Composition and methods for the treatment of musculoskeletal disorders and collagen and elastin deficiencies” (priority 2002, published 2004).
Blank lines part the entries; values can stand above or below the compound they belong to.

Experiments:
[1] = cited from earlier work
[2] = Solubility of rejuvenating ingredients in acidified deionized water mimicking the stomach
Method: In order to determine the amount of rejuvenating-nutrient that may be completely dissolved in water under conditions similar to that of stomach, the following study was executed: Deionized water was heated to 98° F.-99° F. to mimic the temperature of the human body. Adjustment of pH of the water to 2.7-2.9 was accomplished using hydrochloric acid to effect acidic conditions of the human stomach. […] Water/joints products were placed in a heated water bath with continuous agitation. Solubility of various joints products was compared at 30 minutes, one hour and two hours.
The following data reflect the percentage of product solubilized compared to added concentration at 0 minutes: […]

Compound: N[C@H]1C(O)O[C@H](CO)[C@@H](O)[C@@H]1O.O=S(=O)(O)O (some centres unmarked) [glucosamine sulfate]
- Clinical improvement of symptoms, persistence ([1]; after discontinuation of oral administration): up to four weeks
- Clinical improvement of symptoms, onset ([1]; after oral administration): as early as one week

Compound: N[C@H]1C(O)O[C@H](CO)[C@@H](O)[C@@H]1O (some centres unmarked) [GLUCOSAMINE, Glucosamine]
- % SOLUBILITY 2 HRS. ([2]; 2 h, pH 2.7): 30%

Compound: Chondroitin sulfate
- % SOLUBILITY 30 MINS. ([2]; 10% concentration, water 98-99° F., pH 2.7-2.9): 100%
- % SOLUBILITY 30 MINS. ([2]; 30% concentration, water 98-99° F., pH 2.7-2.9): 100%
- % SOLUBILITY 30 MINS. ([2]; 50% concentration, water 98-99° F., pH 2.7-2.9): 100%
- soluble at 50% concentration ([2]; 50% concentration, water 98-99° F., pH 2.7-2.9, time not given): 100%
- % SOLUBILITY 30 MINS. ([2]; 70% concentration, water 98-99° F., pH 2.7-2.9): 20%
- % SOLUBILITY 1 HR. ([2]; 70% concentration, water 98-99° F., pH 2.7-2.9, one hour): 20%
- % SOLUBILITY 2 HRS. ([2]; 70% concentration, water 98-99° F., pH 2.7-2.9, two hours): 20%

Results, then the compound that gave them:

- % SOLUBILITY 1 HR. ([2]; 1 h, pH 2.7): 20%
- % SOLUBILITY 2 HRS. ([2]; 2 h, pH 2.7): 30%
Compound: CS(C)(=O)=O [MSM, Methyl-Sulfonyl-Methane]

- % SOLUBILITY 1 HR. ([2]; pH 2.7): 10%
- % SOLUBILITY 2 HRS. ([2]; pH 2.7): 15%
Compound: Gelatin
